Reference: patent US20260092179A1, “GENETICALLY MODIFIED HOST CELLS PRODUCING VIOLACEIN, ANALOGUES, AND DERIVATIVES THEREOF” (OCTARINE BIO APS, priority 2022, published 2026)
Converted amounts (≈) assume the structure as drawn.

Columns and labels:
[1] = Temperature stability of dyed fabrics (colour fastness, ΔE); type: physicochemical; conditions: oven 80° c. for 4 h; for ΔE: before and after the stability test
Method: In order to assess the stability and colour fastness of violacein and violacein derivatives dyed onto fabrics, dyed fabrics were subjected to a number of conditions. Fabrics were dyed according to Example 18 and colour coordinates and colour change before and after exposure to a given condition were determined as described in Example 18. To measure temperature stability, fabrics were incubated in an oven set to 80° c. for 4 h. To measure stability under acid and alkaline conditions, fabrics were fully submerged in water solutions set to pH 8 with NaOH and pH 5 with HCl and incubated at room temperature for 30 minutes. Fabrics were then incubated at 37° c. for 4 h. To measure stability during laundering, fabrics were washed at 30° c. under the “mix” setting of a Siemens IQ300 washing machine, then dried in a Siemens IQ300 dryer until dry. To measure artificial light stability, fabrics were placed under an LED lamp at room temperature for 16 h. To measure UV light stability, fabrics were placed under a UV lamp at room temperature for 1 h.

[2] = Solubility of violacein in 100% methanol (stock solutions); type: physicochemical; conditions: organic solvent or mixture, read-out: soluble in 100% methanol
Description: In Example 7, S. cerevisiae was engineered to produce violacein and 3 other violacein derivatives (deoxyviolacein, proviolacein, and prodeoxyviolacein). However, during cultivation experiments a number of issues were observed. […] On agar plate we also observed a number of colonies losing their colour, indicating rapid selection against the introduced biosynthetic pathway. […] Issues with toxicity, solubility, and product export have significant negative effects on production of these compounds and limit the commercial viability. To overcome these issues, we investigated whether glycosylation of the compounds could provide a positive impact and improve production. Because violacein and violacein derivatives are not naturally glycosylated, we first sought to identify heterologous glycosyltransferase enzymes displaying promiscuous activity towards these compounds by running a series of in vitro glycosyltransferase enzyme assays using violacein and violacein derivatives as substrate

Structure (SMILES): O=C1NC(c2c[nH]c3ccccc23)=C/C1=C1\C(=O)Nc2ccccc21 [deoxyviolacein]
- L ([1]; Acrylic, After test): 59.66
- a ([1]; Acrylic, After test): 0.86
- b ([1]; Acrylic, After test): −2.82
- L ([1]; Acrylic, Before test): 59.1
- a ([1]; Acrylic, Before test): 1.55
- b ([1]; Acrylic, Before test): −1.29
- ΔE ([1]; Acrylic): 1.77
- L ([1]; Bleached cotton, After test): 63.74
- a ([1]; Bleached cotton, After test): 2.09
- b ([1]; Bleached cotton, After test): −8.13
- L ([1]; Bleached cotton, Before test): 63.16
- a ([1]; Bleached cotton, Before test): 1.56
- b ([1]; Bleached cotton, Before test): −7.66
- ΔE ([1]; Bleached cotton): 0.92
- L ([1]; Diacetate, After test): 51.96
- a ([1]; Diacetate, After test): 10.78
- b ([1]; Diacetate, After test): −13.7
- L ([1]; Diacetate, Before test): 51.65
- a ([1]; Diacetate, Before test): 10.65
- b ([1]; Diacetate, Before test): −14.56
- ΔE ([1]; Diacetate): 0.92
- L ([1]; Nylon 6,6, After test): 45.2
- a ([1]; Nylon 6,6, After test): 6.79
- b ([1]; Nylon 6,6, After test): −21.25
- L ([1]; Nylon 6,6, Before test): 44.99
- a ([1]; Nylon 6,6, Before test): 6.18
- b ([1]; Nylon 6,6, Before test): −21.43
- ΔE ([1]; Nylon 6,6): 0.67
- L ([1]; Polyester, After test): 65.03
- a ([1]; Polyester, After test): 2.08
- b ([1]; Polyester, After test): −2.03
- L ([1]; Polyester, Before test): 64.62
- a ([1]; Polyester, Before test): 1.61
- b ([1]; Polyester, Before test): −2.79
- ΔE ([1]; Polyester): 0.98
- L ([1]; Wool, After test): 66.12
- a ([1]; Wool, After test): 1.93
- b ([1]; Wool, After test): −0.48
- L ([1]; Wool, Before test): 66.67
- a ([1]; Wool, Before test): −0.09
- b ([1]; Wool, Before test): −0.62
- ΔE ([1]; Wool): 2.10

Structure (SMILES): O=C1N=C(c2c[nH]c3ccc(O)cc23)C=C1c1c[nH]c2ccccc12 [proviolacein]
- L ([1]; Acrylic, After test): 58.24
- a ([1]; Acrylic, After test): −0.6
- b ([1]; Acrylic, After test): 1.57
- L ([1]; Acrylic, Before test): 56.45
- a ([1]; Acrylic, Before test): −2.01
- b ([1]; Acrylic, Before test): 2.1
- ΔE ([1]; Acrylic): 2.34
- L ([1]; Bleached cotton, After test): 61.95
- a ([1]; Bleached cotton, After test): 1.2
- b ([1]; Bleached cotton, After test): 2.46
- L ([1]; Bleached cotton, Before test): 62.46
- a ([1]; Bleached cotton, Before test): 0.6
- b ([1]; Bleached cotton, Before test): 2.51
- ΔE ([1]; Bleached cotton): 0.79
- L ([1]; Diacetate, After test): 59.98
- a ([1]; Diacetate, After test): 5.39
- b ([1]; Diacetate, After test): 6.04
- L ([1]; Diacetate, Before test): 61.94
- a ([1]; Diacetate, Before test): 4.17
- b ([1]; Diacetate, Before test): 5.25
- ΔE ([1]; Diacetate): 2.44
- L ([1]; Nylon 6,6, After test): 49.91
- a ([1]; Nylon 6,6, After test): −1.59
- b ([1]; Nylon 6,6, After test): −4
- L ([1]; Nylon 6,6, Before test): 50.83
- a ([1]; Nylon 6,6, Before test): −2.09
- b ([1]; Nylon 6,6, Before test): −3.92
- ΔE ([1]; Nylon 6,6): 1.05
- L ([1]; Polyester, After test): 62.77
- a ([1]; Polyester, After test): −0.52
- b ([1]; Polyester, After test): 1.37
- L ([1]; Polyester, Before test): 64.1
- a ([1]; Polyester, Before test): −1.81
- b ([1]; Polyester, Before test): 1.31
- ΔE ([1]; Polyester): 1.85
- L ([1]; Wool, After test): 64.23
- a ([1]; Wool, After test): 0.18
- b ([1]; Wool, After test): 4.96
- L ([1]; Wool, Before test): 65.67
- a ([1]; Wool, Before test): −0.22
- b ([1]; Wool, Before test): 4.25
- ΔE ([1]; Wool): 1.65

Structure (SMILES): O=C1NC(c2c[nH]c3ccc(O)cc23)=C/C1=C1\C(=O)Nc2ccccc21 [violacein]
- L ([1]; Acrylic, After test): 62.99
- a ([1]; Acrylic, After test): 2.58
- b ([1]; Acrylic, After test): −1.01
- L ([1]; Acrylic, Before test): 64.83
- a ([1]; Acrylic, Before test): 1.28
- b ([1]; Acrylic, Before test): 1.7
- ΔE ([1]; Acrylic): 3.52
- L ([1]; Bleached cotton, After test): 59.33
- a ([1]; Bleached cotton, After test): 3.72
- b ([1]; Bleached cotton, After test): −8.18
- L ([1]; Bleached cotton, Before test): 60.51
- a ([1]; Bleached cotton, Before test): 2.66
- b ([1]; Bleached cotton, Before test): −6.54
- ΔE ([1]; Bleached cotton): 2.28
- L ([1]; Diacetate, After test): 41.38
- a ([1]; Diacetate, After test): 10.6
- b ([1]; Diacetate, After test): −12.61
- L ([1]; Diacetate, Before test): 43.1
- a ([1]; Diacetate, Before test): 8.4
- b ([1]; Diacetate, Before test): −12.5
- ΔE ([1]; Diacetate): 2.79
- L ([1]; Nylon 6,6, After test): 33.74
- a ([1]; Nylon 6,6, After test): 5.53
- b ([1]; Nylon 6,6, After test): −19.85
- L ([1]; Nylon 6,6, Before test): 34.91
- a ([1]; Nylon 6,6, Before test): 5
- b ([1]; Nylon 6,6, Before test): −20.42
- ΔE ([1]; Nylon 6,6): 1.41
- L ([1]; Polyester, After test): 67.81
- a ([1]; Polyester, After test): 4.37
- b ([1]; Polyester, After test): −3.55
- L ([1]; Polyester, Before test): 68.98
- a ([1]; Polyester, Before test): 3.25
- b ([1]; Polyester, Before test): −1.56
- ΔE ([1]; Polyester): 2.57
- L ([1]; Wool, After test): 67.34
- a ([1]; Wool, After test): 1.87
- b ([1]; Wool, After test): −0.17
- L ([1]; Wool, Before test): 67
- a ([1]; Wool, Before test): 1.5
- b ([1]; Wool, Before test): 0.36
- ΔE ([1]; Wool): 0.73
- solubility [2]: 5 mM (≈ 1720 µg/mL)
